Each structure is given as a SMILES string.

The target in experiment [1] is T1, PfGSK3 (Plasmodium falciparum, UniProt O77344).
T1 construct: gene PF3D7_0312400
T1 sequence (O77344 1-440): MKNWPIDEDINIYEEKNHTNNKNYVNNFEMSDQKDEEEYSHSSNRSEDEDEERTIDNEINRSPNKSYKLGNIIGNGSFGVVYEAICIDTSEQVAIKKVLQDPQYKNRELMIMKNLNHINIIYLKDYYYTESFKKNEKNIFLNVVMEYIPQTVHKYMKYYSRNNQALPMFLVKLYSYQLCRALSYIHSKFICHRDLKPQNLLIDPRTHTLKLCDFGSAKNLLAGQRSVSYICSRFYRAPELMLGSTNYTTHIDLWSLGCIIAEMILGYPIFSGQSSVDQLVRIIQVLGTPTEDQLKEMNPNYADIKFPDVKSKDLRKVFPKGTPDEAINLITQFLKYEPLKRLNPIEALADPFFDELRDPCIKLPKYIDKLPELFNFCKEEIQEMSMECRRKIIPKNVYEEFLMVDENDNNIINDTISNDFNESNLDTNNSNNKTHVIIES
Briefly: KinaseGlo Plus luminescence ATP consumption (autophosphorylation). It is filed as biochemical. To be noted: 30 µM ATP, no peptide substrate; 20 mM MgCl2; pH 7.5; 30 °C. (In Kinase-Glo more light means more ATP remaining.)

Experiment [2] concerns the target T1, PfGSK3. Briefly: nanoDSF thermal shift. It is filed as binding. To be noted: 1 mg/ml protein; 6 mM dATP in Figure 2B; concentration series in supplement; heating 1 °C/min. On the technique in general: In DSF a fluorescence change marks the thermal transition of the protein.

`Nc1ncnc2c1ncn2[C@@H]1O[C@H](COP(=O)(O)OP(=O)(O)OP(=O)(O)O)[C@@H](O)[C@H]1O` [ATP]: the “KinaseGlo Plus luminescence ATP consumption (autophosphorylation)” value on PfGSK3 [1] was “The assay showed the consumption of ATP even in the absence of the substrate peptide”.

On to `Nc1ncnc2c1ncn2[C@H]1C[C@H](O)[C@@H](COP(=O)(O)OP(=O)(O)OP(=O)(O)O)O1` [dATP], for which, at PfGSK3 [2], the Tm entry was “dATP stabilizes PfGSK3, suggesting that it binds in the ATP binding pocket”.

Values taken from publication PMC8883495, “N-terminal phosphorylation regulates the activity of glycogen synthase kinase 3 from Plasmodium falciparum” (Biochemical Journal, 2022).
